Source: patent US9232797B2, “Pesticidal composition and its use” (SUMITOMO CHEMICAL COMPANY, LIMITED, priority 2010, dated 2016)

Tested on: Rhizoctonia solani
Experiment: Soybean seed treatment test in soil contaminated by Rhizoctonia solani (disease control efficacy)
Assay type: in vivo, Rhizoctonia solani on soybean (variety: Natto shoryu)
Conditions: seed treatment with carboxamide compound alone 0.2 g/100 kg of seeds; soybean cultivated 20 days in contaminated soil; versus non-treated plot
Experimental: A cyclohexanone solution (100 microL) containing prescribed amount (weight) of a test compound was applied on seeds of soybean (variety: Natto shoryu) (10 g) by using a rotary apparatus for seed treatment (Seed dresser, manufactured by Hans-Ulrich Hege GmbH).
One day after the treatment, plastic pot was filled with soil contaminated by Rhizoctonia solani, and the seeds treated with the test compounds were seeded in the soil and cultivated in a glass-greenhouse for 20 days (hereinafter referred to as “treated plot”).
Thereafter, the presence of disease caused by Rhizoctonia solani in the young plants which germinated from each seed was observed and disease severity was calculated according to the following calculation formula (1).
On the other hand, seeds of soybean which were not treated as above were cultivated in the same way as above (hereinafter referred to as “non-treated plot”) and the disease severity in “non-treated plot” was calculated in the same way as above “treated plot”. On the basis of the above disease severity in “treated plot” and “non-treated plot”, efficacy in “treated plot” was evaluated according to the following calculation formula (2). […]

SMILES: CC1CC(C)(C)c2cccc(NC(=O)c3cn(C)nc3C(F)F)c21 (stereo not shown) [carboxamide compound (I)]
- efficacy (%): 42.1%
